The source of these data is patent US20250353864A1, “INDAZOLE CONTAINING MACROCYCLES AND THEIR USE” (BLOSSOMHILL THERAPEUTICS, INC., priority 2022, published 2025).

The conditions of data set [1]: cc_pd bond, 15-membered ring.
A further data set concerns the target EGFR WT (Homo sapiens (Human), UniProt P00533). Description: HotSpot radiometric kinase assay (Reaction Biology), EGFR WT. Type of data set: biochemical. The settings on record: 10 μM ATP. The gist of the method: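 IC50 values come from curve fits of ^33P incorporation captured on P81 filters after acid washing. Kinase reactions ran 120 min at room temperature with 10 μM ATP, added about 20 min after compound. Buffer was Hepes pH 7.5 containing Mg, DTT and 1% DMSO.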

A further data set addresses EGFR L858R/T790M mutant (Homo sapiens (Human), UniProt P00533, L858R/T790M). Description: HotSpot radiometric kinase assay, EGFR L858R/T790M mutant. The format is biochemical. The following applies: 10 μM ATP. The gist of the method:
(§1)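 Radiometric filter-binding read-out: incorporated 33P was retained on P81 ion-exchange paper after washing away unbound phosphate. Reactions ran 120 min at room temperature with 10 μM final ATP, following ~20 min compound preincubation in Hepes pH 7.5 buffer containing 1% DMSO. IC50 from fitted curves.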

Data set [2] has as its target EGFR L858R/T790M/C797S mutant (Homo sapiens (Human), UniProt P00533, C797S/L858R/T790M). Nature of the data set: HotSpot radiometric kinase assay, EGFR L858R/T790M/C797S mutant. Type of data set: biochemical. The following applies: 10 μM ATP. The gist of the method: as §1
The next data set has as its target EGFR (D770_N771insNPG) (Homo sapiens (Human), UniProt P00533, INS770NPG). Description: HotSpot radiometric kinase assay, EGFR (D770_N771insNPG). The settings on record: 10 μM ATP, read-out: EGFR (Δ770_N771insNPG) IC50. Type of data set: biochemical. In short, it runs like this:
as §1

The target in a further data set is ALK (Homo sapiens (Human), UniProt Q9UM73). Description: HotSpot radiometric kinase assay, inhibition of ALK kinase activity. Type of data set: biochemical. The settings on record: 10 μM ATP. The gist of the method:
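Radiometric filter-binding assay in which kinase and substrate in pH 7.5 Hepes buffer (1% DMSO) were preincubated with compound ~20 min before 10 μM ATP with 33P-ATP was added. Reactions ran 120 min at room temperature, were spotted on P81 paper and washed in phosphoric acid, and IC50 came from curve fits.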

The target in another data set is CLK3 (Homo sapiens (Human), UniProt P49761). Description: Inhibition of CLK3 kinase activity evaluated at Nanosyn (ADP-Glo). The following applies: ADP-Glo luminescence. Type of data set: biochemical. The gist of the method: (§2)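 ADP-Glo luminescence (40 min depletion, 10 min detection) quantifies ADP from ATP-initiated phosphorylation of substrate by each CLK isoform in HEPES pH 7.5 buffer, 1% DMSO, assay-specific incubation. %-inhibition calculated against uninhibited and enzyme-free controls.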
Sequence of CLK3 (P49761 whole entry, canonical isoform): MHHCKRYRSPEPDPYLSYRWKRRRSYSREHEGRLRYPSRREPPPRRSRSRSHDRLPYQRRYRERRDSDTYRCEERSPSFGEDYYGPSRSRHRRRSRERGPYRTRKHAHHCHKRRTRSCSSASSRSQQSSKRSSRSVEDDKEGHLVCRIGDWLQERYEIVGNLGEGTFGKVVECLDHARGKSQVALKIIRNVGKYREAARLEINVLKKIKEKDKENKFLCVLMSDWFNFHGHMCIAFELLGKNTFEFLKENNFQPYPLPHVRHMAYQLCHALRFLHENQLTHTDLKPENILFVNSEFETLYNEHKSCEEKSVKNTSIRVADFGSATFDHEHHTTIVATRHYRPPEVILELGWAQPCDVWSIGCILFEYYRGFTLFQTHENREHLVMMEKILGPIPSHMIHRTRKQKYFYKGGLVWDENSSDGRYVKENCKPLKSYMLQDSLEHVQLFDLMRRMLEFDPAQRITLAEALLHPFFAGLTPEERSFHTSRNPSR

For data set [3], the target named is EGFR Δ746-750/C797S mutant (Homo sapiens (Human), UniProt P00533, C797S/DEL746-750). Description: HotSpot radiometric kinase assay, EGFR Δ746-750/C797S mutant. Type of data set: biochemical. The settings on record: 10 μM ATP. In short, it runs like this:
as §1

Another data set deals with CLK1 (Homo sapiens (Human), UniProt P49759). Nature of the data set: Inhibition of CLK1 kinase activity evaluated at Nanosyn (ADP-Glo). Type of data set: biochemical. The following applies: ADP-Glo luminescence. The gist of the method:
as §2
In general terms: ADP-Glo first removes unused ATP, then detects ADP through luciferase.

Another data set concerns the target CLK2 (Homo sapiens (Human), UniProt P49760). Description: Inhibition of CLK2 kinase activity evaluated at Nanosyn (ADP-Glo). The format is biochemical. The following applies: ADP-Glo luminescence. In short, it runs like this:
as §2

A further data set addresses EGFR Δ746-750 mutant (Homo sapiens (Human), UniProt P00533, DEL746-750). Description: HotSpot radiometric kinase assay, EGFR Δ746-750 mutant. The format is biochemical. The following applies: 10 μM ATP. The gist of the method: as §1
The next data set concerns the target EGFR L858R mutant (Homo sapiens (Human), UniProt P00533, L858R). Nature of the data set: HotSpot radiometric kinase assay, EGFR L858R mutant. The format is biochemical. The settings on record: 10 μM ATP. In short, it runs like this:
as §1

For a further data set, the target named is CLK4 (Homo sapiens (Human), UniProt Q9HAZ1). Nature of the data set: Inhibition of CLK4 kinase activity evaluated at Nanosyn (ADP-Glo). The format is biochemical. The following applies: ADP-Glo luminescence. The gist of the method:
as §2

Where two headings read alike, the source gives them in different places.

Sequence of EGFR (D770_N771insNPG) (P00533 other isoform, or with tags, fused parts or gaps del 1-668/ins NPG behind 770 limits assumed): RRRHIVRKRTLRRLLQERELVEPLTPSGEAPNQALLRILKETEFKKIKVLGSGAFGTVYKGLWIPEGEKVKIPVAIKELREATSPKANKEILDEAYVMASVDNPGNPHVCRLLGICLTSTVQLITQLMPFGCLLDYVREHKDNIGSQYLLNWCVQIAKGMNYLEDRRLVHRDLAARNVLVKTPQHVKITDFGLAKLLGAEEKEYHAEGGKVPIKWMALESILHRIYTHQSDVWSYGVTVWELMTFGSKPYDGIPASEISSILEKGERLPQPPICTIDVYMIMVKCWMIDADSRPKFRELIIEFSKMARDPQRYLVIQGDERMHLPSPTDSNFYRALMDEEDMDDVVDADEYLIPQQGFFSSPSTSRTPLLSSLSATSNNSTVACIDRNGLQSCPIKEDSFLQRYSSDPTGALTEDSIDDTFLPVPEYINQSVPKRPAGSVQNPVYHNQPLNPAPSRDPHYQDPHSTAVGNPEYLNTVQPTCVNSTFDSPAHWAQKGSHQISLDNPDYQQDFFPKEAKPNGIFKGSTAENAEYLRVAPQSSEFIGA
Sequence of EGFR WT (P00533 25-1210): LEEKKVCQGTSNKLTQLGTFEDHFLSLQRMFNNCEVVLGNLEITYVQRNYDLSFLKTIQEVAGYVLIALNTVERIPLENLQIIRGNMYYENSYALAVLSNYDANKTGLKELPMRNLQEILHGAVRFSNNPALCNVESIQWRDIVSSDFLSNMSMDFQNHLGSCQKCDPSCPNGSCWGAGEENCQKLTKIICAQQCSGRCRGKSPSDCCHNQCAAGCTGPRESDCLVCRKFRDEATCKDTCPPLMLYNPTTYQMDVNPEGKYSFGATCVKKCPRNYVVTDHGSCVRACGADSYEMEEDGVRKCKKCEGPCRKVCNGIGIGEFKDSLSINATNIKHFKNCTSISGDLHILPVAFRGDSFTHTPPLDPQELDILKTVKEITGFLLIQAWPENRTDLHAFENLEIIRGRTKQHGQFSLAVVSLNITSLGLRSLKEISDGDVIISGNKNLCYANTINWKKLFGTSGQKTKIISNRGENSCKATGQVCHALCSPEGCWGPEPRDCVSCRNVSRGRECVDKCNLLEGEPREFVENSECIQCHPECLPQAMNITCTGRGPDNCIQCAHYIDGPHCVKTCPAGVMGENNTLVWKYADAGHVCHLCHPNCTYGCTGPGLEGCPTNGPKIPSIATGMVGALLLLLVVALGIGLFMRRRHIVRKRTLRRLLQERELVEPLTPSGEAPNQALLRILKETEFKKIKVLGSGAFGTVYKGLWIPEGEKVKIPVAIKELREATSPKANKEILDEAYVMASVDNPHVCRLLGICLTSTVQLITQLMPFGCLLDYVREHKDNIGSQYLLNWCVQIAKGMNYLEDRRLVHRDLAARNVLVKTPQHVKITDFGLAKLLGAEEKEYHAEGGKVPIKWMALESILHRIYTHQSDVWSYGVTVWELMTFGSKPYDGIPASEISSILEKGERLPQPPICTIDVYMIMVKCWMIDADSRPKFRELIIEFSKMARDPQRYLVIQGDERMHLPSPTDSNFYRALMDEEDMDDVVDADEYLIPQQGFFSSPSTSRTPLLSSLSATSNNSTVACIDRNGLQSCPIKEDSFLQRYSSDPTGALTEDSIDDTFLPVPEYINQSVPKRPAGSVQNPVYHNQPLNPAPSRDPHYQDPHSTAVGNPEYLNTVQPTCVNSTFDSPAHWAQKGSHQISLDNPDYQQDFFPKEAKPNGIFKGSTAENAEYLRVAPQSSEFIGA
Sequence of ALK (Q9UM73 19-1620): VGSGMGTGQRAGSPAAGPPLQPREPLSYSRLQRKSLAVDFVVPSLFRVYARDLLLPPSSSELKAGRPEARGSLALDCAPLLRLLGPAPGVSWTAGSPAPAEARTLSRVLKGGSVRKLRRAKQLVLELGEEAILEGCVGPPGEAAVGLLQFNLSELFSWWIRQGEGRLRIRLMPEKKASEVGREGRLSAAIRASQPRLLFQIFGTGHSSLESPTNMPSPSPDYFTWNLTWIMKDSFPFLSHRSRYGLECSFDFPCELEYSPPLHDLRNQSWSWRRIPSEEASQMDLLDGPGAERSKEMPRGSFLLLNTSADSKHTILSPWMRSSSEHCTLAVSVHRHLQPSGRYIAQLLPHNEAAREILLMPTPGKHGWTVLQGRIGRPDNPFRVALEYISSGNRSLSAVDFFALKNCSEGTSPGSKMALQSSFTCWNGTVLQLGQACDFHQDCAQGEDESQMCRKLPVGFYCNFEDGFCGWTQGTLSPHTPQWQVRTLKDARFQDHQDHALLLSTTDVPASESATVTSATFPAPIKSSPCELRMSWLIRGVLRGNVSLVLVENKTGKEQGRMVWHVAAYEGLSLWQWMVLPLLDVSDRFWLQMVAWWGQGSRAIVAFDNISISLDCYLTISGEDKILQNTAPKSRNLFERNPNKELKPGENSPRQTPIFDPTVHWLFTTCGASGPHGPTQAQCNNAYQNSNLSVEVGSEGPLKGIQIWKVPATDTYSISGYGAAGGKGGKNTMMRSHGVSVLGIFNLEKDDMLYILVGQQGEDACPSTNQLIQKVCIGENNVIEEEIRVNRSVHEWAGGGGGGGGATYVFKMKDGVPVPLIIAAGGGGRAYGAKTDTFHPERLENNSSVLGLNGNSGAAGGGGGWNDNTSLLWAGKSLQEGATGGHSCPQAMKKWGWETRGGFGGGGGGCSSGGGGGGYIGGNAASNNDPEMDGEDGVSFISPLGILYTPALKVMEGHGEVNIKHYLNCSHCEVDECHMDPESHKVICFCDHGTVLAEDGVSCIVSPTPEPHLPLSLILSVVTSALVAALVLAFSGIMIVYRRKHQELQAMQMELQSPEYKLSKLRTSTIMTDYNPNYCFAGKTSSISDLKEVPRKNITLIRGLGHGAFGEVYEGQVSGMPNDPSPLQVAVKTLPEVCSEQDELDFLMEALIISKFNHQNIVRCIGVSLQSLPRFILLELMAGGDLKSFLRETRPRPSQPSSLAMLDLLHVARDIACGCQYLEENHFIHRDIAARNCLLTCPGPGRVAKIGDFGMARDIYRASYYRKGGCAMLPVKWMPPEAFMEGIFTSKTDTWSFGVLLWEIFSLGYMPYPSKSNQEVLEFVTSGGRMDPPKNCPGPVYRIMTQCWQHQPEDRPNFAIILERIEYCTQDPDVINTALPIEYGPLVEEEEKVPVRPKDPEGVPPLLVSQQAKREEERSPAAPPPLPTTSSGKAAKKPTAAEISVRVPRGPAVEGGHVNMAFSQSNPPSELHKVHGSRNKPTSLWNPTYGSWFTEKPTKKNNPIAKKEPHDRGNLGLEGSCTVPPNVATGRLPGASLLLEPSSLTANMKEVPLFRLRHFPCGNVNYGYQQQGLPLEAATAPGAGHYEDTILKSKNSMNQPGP
Sequence of CLK4 (Q9HAZ1 whole entry): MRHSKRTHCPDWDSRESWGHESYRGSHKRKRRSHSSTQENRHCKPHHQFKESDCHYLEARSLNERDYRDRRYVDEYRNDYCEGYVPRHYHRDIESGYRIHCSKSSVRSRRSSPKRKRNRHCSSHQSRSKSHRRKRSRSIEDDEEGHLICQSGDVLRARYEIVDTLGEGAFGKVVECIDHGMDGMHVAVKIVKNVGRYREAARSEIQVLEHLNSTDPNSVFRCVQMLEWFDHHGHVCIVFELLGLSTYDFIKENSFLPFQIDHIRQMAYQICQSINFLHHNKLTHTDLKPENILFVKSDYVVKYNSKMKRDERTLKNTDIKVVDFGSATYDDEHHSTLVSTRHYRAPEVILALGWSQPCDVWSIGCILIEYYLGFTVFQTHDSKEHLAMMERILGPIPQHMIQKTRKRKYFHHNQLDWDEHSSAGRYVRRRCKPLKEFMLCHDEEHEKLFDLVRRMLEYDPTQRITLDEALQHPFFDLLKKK
Sequence of EGFR Δ746-750 mutant (P00533 other isoform, or with tags, fused parts or gaps del 1-668/del 746-750 limits assumed): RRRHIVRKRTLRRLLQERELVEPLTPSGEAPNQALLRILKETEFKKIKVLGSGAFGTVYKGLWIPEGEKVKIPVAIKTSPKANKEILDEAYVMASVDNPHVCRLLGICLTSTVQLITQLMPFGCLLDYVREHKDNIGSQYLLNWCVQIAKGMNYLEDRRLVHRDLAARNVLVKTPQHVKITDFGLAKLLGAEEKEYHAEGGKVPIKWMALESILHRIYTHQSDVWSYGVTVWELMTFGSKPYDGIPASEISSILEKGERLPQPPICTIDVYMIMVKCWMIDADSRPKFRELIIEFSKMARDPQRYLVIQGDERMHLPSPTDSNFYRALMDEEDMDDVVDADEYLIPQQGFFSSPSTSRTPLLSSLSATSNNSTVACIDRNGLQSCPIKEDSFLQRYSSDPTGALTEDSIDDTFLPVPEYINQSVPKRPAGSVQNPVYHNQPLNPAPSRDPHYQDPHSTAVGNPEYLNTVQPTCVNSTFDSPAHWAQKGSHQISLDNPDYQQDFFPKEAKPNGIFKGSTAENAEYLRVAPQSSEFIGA

With `CCOc1nn(CCO)c2c1/C=C/c1nn(C3CCCCO3)c3cc(F)c(cc13)-c1cnn(C)c1O[C@@H]1CCCN(C2)C1` (stereo partly drawn), the ring closure, isolated yield in [1] (from CCOc1nn(CCO)c(CN2CCC[C@@H](Oc3c(-c4cc5c(/C=C/B6OC(C)(C)C(C)(C)O6)nn(C6CCCCO6)c5cc4F)cnn3C)C2)c1I, CataCXium A Pd G3/K3PO4, dioxane, 112.0 mM, 90.0 °C, 2.0 h) is 42%.

In turn, `CCOc1nn(CCO[Si](C)(C)C(C)(C)C)c2c1/C=C/c1nn(C3CCCCO3)c3cc(F)c(cc13)-c1c(C)nn(C)c1O[C@@H](C)CN(C(C)C)C2` (stereo partly drawn) had a ring closure, isolated yield in data set [1] (from C=Cc1nn(C2CCCCO2)c2cc(F)c(-c3c(C)nn(C)c3O[C@@H](C)CN(Cc3c(I)c(OCC)nn3CCO[Si](C)(C)C(C)(C)C)C(C)C)cc12, Pd(OAc)2/TBAC/NaHCO3, DMF, 96.7 mM, 140.0 °C, 1.0 h) of 84%.

The molecule `COC(=O)[C@H]1CN(C)Cc2c(c(OC(C)C)nn2CCO[Si](C)(C)C(C)(C)C)/C=C/c2nn(C3CCCCO3)c3ccc(cc23)-c2cnn(C)c2O1` (stereo partly drawn) came in with a ring closure, isolated yield in data set [1] (from C=Cc1nn(C2CCCCO2)c2ccc(-c3cnn(C)c3O[C@H](CN(C)Cc3c(I)c(OC(C)C)nn3CCO[Si](C)(C)C(C)(C)C)C(=O)OC)cc12, Pd(OAc)2/TBAC/TEA, DMF, 11.6 mM, 100.0 °C, 2.0 h) of 47%.

In general, IC50 refers to the midpoint of a concentration-inhibition curve. On to `CCOc1nn([C@@H](C)CO)c2c1/C=C/c1n[nH]c3cc(F)c(cc13)-c1cnn(C)c1O[C@@H](C)CN(CC)C2` [Example 215], for which the IC50 at EGFR WT turned out to be 1.71 nM; at EGFR L858R/T790M mutant, 1.49 nM; in data set [2] it was 0.89 nM; on EGFR (D770_N771insNPG) it was 3.75 nM; at ALK, 2.58 nM; at CLK3, 964 nM. Further, the IC50 in [3] was determined as 1.93 nM; on CLK1 it was 3.33 nM; on CLK2, 2.1 nM; on EGFR Δ746-750 mutant, 0.69 nM; against EGFR L858R mutant, 1.7 nM; on CLK4, 9.08 nM.

In the case of `CCN1Cc2c(c(OC(C)C)nn2CCO)/C=C/c2n[nH]c3cc(F)c(cc23)-c2cnn(C)c2O[C@@H](C)C1` [Example 216, 2-{(10S,17E)-12-ethyl-19-fluoro-8,10-dimethyl-16-[(propan-2-yl)oxy]-2,8,10,11,12,13-hexahydro-14H-3,5-ethenotripyrazolo[3,4-f:3′,4′-j:4″,3″- n][1,4]oxazacyclopentadecin-14-yl}ethan-1-ol], the IC50 amounted to 2.43 nM against EGFR WT; 0.44 nM against EGFR L858R/T790M mutant; 0.37 nM in data set [2]; 28.9 nM on EGFR (D770_N771insNPG); 2.04 nM at ALK; 115 nM on CLK3. The IC50 in [3] is 0.63 nM; on CLK1 it was 2.02 nM; on CLK2 it was 1.28 nM; against EGFR Δ746-750 mutant, 0.47 nM; against EGFR L858R mutant it was 2.22 nM; on CLK4 it was 5.39 nM.

As to `CCN1Cc2c(c(OC(C)C)nn2[C@@H](C)CO)/C=C/c2n[nH]c3cc(F)c(cc23)-c2cnn(C)c2O[C@@H](C)C1` [Example 219, (2S)-2-{(10S,17E)-12-ethyl-19-fluoro-8,10-dimethyl-16-[(propan-2-yl)oxy]-2,8,10,11,12,13-hexahydro-14H-3,5-ethenotripyrazolo[3,4-f:3′,4′-j:4″,3″- n][1,4]oxazacyclopentadecin-14-yl}propan-1-ol], the IC50 came to 7.25 nM at EGFR WT; 5.3 nM at EGFR L858R/T790M mutant; 3.84 nM in data set [2]; 21.2 nM at EGFR (D770_N771insNPG); 1.31 nM at ALK; 146 nM at CLK3. The IC50 was 5.13 nM in [3]; 2.05 nM on CLK1; 4.51 nM on CLK2; 3.02 nM at EGFR Δ746-750 mutant; 4.73 nM at EGFR L858R mutant; 5.62 nM on CLK4.

Turning to `CCN1Cc2c(c(OC(C)C)nn2CC(N)=O)/C=C/c2n[nH]c3ccc(cc23)-c2cnn(C)c2O[C@@H](C)C1` [Example 232, 2-{(10S,17E)-12-ethyl-8,10-dimethyl-16-[(propan-2-yl)oxy]-2,8,10,11,12,13-hexahydro-14H-3,5-ethenotripyrazolo[3,4-f:3′,4′-j:4″,3″-n][1,4]oxazacyclopentadecin-14-yl}acetamide], the concentration for half-maximal inhibition (IC50) against EGFR WT came to 0.41 nM; on EGFR L858R/T790M mutant, 0.13 nM; in data set [2], 0.11 nM; on EGFR (D770_N771insNPG), 1.39 nM; against ALK, 0.9 nM; at CLK3, 42 nM. For the same molecule, the IC50 in data set [3] stood at 0.55 nM; on CLK1, 0.77 nM; on CLK2, 0.45 nM; at EGFR Δ746-750 mutant, 0.08 nM; on EGFR L858R mutant it was 0.22 nM; on CLK4, 1.49 nM.
